Activity calls are given as the source filed them.
Tests used:
[1] = target: Melanin-concentrating hormone receptor 1 (Homo sapiens, UniProt Q99705); assay: Fluorescence-based counterscreen for antagonists of the G-protein coupled receptor 7 (GPR7): cell-based high throughput dose response assay to identify antagonists of the melanin-concentrating hormone receptor 1 (MCHR1).; type: functional
[2] = target: T1, Neuropeptides B/W receptor type 1 (Homo sapiens, UniProt P48145); assay: Fluorescence-based dose response cell-based high throughput screening assay to identify antagonists of the G-protein coupled receptor 7 (GPR7). [Related pubchem assays: 1952 (Screening assay (GPR7 antagonists).), 1880 (Summary AID.)]; type: functional
T1 sequence (P48145 whole entry): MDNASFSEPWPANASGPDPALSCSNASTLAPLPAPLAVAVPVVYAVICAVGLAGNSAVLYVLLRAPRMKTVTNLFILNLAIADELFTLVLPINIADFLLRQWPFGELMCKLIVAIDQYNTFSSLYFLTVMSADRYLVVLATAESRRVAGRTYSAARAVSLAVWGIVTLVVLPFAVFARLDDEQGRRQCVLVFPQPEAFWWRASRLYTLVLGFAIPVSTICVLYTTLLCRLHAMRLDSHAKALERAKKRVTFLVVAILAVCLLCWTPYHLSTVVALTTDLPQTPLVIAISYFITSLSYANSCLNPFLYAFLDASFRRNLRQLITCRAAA

[3] = target: T2, Corticotropin-releasing factor receptor 2/Corticotropin-releasing factor-binding protein (Homo sapiens, UniProt P24387+Q13324); assay: activators of CRF receptor 2 with binding protein – uHTS hits, confirmation (AID 602473); type: functional; settings: read-out: EC50_Mean
T2 sequence (Q13324 whole entry): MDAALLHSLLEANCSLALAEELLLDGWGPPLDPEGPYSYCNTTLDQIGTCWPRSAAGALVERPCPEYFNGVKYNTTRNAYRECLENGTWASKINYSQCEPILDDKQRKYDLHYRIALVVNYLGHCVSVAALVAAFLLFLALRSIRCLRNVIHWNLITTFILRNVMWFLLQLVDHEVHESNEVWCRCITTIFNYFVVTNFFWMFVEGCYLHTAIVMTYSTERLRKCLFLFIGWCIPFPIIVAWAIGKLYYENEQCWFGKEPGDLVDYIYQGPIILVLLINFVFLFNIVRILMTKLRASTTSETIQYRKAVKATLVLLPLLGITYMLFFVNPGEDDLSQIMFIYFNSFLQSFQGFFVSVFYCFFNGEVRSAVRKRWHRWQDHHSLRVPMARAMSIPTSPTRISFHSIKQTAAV
T2 sequence (P24387 whole entry): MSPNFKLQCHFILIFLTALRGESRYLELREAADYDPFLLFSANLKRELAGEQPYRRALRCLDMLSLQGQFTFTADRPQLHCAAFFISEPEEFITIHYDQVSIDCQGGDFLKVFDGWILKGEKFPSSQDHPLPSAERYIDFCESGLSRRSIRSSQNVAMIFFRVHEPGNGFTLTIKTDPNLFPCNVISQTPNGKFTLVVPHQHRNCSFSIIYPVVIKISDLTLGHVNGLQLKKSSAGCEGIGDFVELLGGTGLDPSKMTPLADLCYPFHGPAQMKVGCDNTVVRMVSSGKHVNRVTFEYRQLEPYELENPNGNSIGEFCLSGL

Cytochrome P450 2D6 = Cytochrome P450 2D6 (Homo sapiens, UniProt P10635); assay: qHTS Assay for Inhibitors and Substrates of Cytochrome P450 2D6. [Related pubchem assays: 410 ]; type: ADME; settings: read-out: Potency
[4] = target: Photoreceptor-specific nuclear receptor (Homo sapiens, UniProt Q9Y5X4); type: functional;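 also: potency for compounds that break the NR2E3 corepressor complex and count as activators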
[5] = target: Peroxisome proliferator-activated receptor gamma/Nuclear receptor corepressor 2 (Homo sapiens, UniProt P37231+Q9Y618); type: functional
Cytochrome P450 2C9 = Cytochrome P450 2C9 (Homo sapiens, UniProt P11712); settings: Potency
Chain of Cytochrome P450 2C9 (P11712 whole entry): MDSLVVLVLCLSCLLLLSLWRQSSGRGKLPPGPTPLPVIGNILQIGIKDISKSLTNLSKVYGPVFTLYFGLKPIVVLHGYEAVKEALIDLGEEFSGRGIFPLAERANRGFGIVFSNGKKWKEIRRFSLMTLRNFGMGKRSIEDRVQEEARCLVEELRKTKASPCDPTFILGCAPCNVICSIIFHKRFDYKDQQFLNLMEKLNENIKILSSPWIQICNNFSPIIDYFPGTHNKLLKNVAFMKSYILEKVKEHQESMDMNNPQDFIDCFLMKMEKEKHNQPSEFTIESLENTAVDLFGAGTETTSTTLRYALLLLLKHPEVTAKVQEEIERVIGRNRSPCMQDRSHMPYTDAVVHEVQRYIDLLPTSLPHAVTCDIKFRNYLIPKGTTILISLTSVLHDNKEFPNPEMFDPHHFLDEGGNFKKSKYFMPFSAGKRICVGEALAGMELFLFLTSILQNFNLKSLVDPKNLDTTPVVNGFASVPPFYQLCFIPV

Chain of Melanin-concentrating hormone receptor 1 (Q99705 whole entry): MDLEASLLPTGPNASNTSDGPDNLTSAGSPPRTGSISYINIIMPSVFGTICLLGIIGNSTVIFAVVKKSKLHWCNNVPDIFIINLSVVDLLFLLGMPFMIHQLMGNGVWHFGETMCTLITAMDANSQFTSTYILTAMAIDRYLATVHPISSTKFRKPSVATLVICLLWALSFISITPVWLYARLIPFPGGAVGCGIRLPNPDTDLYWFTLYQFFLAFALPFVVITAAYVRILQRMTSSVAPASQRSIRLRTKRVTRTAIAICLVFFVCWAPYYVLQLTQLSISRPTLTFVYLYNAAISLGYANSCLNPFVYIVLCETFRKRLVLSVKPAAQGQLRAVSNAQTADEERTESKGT
Chain of Cytochrome P450 2D6 (P10635 whole entry): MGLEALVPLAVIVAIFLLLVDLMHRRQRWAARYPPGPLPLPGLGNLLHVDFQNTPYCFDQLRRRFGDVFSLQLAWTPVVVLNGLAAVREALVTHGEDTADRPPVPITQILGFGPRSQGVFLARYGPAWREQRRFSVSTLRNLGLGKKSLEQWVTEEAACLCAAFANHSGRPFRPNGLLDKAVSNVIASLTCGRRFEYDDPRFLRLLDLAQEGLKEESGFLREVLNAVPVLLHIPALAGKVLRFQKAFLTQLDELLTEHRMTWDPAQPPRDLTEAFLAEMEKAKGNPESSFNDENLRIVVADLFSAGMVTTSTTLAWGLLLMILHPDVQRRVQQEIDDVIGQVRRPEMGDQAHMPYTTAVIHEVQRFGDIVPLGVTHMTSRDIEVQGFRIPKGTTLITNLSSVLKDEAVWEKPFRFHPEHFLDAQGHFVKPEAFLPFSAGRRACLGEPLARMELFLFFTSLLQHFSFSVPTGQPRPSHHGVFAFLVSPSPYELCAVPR
Chain of Photoreceptor-specific nuclear receptor (Q9Y5X4 whole entry): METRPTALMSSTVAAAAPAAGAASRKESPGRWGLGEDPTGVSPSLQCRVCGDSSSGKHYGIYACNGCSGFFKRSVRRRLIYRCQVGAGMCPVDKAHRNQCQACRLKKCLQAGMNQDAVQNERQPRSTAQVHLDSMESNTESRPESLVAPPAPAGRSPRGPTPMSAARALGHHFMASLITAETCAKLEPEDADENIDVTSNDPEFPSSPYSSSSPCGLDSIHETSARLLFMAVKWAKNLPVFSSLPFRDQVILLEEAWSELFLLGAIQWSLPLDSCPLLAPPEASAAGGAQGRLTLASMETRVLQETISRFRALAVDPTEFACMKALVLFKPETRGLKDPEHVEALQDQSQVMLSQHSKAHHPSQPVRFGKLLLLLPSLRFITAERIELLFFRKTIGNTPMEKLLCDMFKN
Chain of Peroxisome proliferator-activated receptor gamma/Nuclear receptor corepressor 2 (P37231 whole entry): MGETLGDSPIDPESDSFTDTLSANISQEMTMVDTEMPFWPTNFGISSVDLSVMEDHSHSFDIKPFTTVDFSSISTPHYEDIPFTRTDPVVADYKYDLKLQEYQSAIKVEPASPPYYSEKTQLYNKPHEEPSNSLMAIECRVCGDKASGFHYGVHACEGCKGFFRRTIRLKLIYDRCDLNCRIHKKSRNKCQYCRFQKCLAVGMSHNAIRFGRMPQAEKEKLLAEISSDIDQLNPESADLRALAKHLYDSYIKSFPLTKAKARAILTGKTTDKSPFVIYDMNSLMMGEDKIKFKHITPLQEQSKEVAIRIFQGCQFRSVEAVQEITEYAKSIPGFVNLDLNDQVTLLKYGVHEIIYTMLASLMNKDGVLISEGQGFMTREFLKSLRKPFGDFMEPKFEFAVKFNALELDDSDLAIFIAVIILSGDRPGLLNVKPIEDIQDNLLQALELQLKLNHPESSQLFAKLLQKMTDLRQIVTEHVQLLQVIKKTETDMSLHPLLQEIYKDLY
Chain of Peroxisome proliferator-activated receptor gamma/Nuclear receptor corepressor 2 (Q9Y618 whole entry): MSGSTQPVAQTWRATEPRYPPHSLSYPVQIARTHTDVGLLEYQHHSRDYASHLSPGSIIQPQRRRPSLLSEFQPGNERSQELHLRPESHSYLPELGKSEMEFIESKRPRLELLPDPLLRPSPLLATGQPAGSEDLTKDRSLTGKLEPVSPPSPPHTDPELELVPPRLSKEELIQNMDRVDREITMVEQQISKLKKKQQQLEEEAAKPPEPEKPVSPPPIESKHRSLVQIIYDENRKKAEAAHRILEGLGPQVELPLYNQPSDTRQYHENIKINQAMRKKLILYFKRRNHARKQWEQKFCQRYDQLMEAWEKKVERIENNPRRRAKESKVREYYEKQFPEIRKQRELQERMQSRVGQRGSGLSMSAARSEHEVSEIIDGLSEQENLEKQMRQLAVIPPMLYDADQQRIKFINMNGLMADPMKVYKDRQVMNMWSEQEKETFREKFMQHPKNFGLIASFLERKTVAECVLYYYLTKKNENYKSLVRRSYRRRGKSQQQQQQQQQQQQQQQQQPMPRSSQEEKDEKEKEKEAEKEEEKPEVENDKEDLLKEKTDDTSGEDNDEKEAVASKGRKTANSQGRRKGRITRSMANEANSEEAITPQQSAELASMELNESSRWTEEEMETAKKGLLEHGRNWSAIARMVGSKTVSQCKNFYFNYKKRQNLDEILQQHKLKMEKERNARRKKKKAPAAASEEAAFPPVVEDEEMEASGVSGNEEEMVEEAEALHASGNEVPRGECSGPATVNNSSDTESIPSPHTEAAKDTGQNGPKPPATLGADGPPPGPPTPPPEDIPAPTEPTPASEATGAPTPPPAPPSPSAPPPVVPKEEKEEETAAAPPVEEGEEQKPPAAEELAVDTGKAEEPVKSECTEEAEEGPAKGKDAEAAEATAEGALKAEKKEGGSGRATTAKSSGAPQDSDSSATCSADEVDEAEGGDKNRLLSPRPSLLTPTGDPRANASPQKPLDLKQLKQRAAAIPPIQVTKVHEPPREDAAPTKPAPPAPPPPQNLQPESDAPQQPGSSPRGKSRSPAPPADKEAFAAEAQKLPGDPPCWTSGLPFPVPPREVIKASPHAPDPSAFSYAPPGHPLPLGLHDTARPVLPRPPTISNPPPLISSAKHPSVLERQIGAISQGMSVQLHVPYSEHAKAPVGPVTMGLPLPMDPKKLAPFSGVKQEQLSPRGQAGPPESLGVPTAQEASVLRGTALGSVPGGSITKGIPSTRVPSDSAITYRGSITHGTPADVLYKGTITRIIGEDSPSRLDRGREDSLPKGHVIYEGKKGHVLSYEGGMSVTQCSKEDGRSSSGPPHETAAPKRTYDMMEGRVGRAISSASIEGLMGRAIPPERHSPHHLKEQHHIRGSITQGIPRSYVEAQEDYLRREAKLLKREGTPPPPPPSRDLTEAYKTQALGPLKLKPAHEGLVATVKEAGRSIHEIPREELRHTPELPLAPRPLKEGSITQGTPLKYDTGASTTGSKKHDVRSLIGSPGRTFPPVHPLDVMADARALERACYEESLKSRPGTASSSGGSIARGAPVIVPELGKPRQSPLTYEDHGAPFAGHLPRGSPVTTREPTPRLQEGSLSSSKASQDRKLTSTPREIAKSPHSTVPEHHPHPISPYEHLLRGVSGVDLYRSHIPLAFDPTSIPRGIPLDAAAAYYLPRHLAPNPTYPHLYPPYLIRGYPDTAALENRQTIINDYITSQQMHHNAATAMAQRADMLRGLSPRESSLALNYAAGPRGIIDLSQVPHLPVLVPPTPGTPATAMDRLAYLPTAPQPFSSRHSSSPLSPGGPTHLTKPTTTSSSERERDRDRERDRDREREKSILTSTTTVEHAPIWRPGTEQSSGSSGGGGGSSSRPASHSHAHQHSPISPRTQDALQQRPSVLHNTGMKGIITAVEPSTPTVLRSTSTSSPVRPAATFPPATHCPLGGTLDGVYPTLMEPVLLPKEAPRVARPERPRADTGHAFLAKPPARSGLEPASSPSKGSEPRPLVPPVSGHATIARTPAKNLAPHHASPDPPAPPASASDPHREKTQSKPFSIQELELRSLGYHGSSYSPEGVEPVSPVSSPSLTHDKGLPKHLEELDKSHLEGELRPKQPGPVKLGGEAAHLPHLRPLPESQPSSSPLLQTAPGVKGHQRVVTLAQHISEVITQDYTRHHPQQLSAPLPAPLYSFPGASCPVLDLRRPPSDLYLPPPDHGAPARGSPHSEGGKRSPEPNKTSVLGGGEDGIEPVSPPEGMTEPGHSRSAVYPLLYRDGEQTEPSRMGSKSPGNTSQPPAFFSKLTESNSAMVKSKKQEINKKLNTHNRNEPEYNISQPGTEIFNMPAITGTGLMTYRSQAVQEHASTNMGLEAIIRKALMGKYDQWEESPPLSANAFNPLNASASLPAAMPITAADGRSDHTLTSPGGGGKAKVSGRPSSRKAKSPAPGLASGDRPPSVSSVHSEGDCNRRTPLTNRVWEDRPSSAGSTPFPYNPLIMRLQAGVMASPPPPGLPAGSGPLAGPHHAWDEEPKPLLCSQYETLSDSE

For `Cc1cccc(NC(=S)NC(=O)Cc2ccccc2)c1C`, the IC50 [1] was 13.3 µM (not active), the IC50 [2] was 6.65 µM (active) and the EC50 [3] was 9.75 µM (active).
For `O=c1cc(-c2ccccc2O)oc2cc(O)cc(O)c12`, the AC50 (Cytochrome P450 2D6) was 25.1 µM (inconclusive).
For `Cc1cc(-c2ccc(Cl)cc2)c(C#N)c(N)n1`, the IC50 [4] was 33 µM (not active) and the IC50 [5] was 3.26 µM (active).
`CCC[C@@H]1O[C@@H]2C[C@@H]3[C@@H]4CCC5=CC(=O)C=C[C@@]5(C)[C@H]4[C@H](O)C[C@@]3(C)[C@@]2(C(=O)CO)O1` was tested, and the AC50 (Cytochrome P450 2C9) was 25.1 µM (inconclusive).

Reference: ChEMBL document CHEMBL1201862, “PubChem BioAssay data set” (2004)
